Measured values: patent US8012956B2, “Tropane compounds” (Exelixis, Inc., priority 2007, dated 2011)

What follows are molecules tested against HSP90 (Homo sapiens, UniProt P07900) (assay: HSP90 inhibition (HSP90 IC50)).
Type: biochemical

SMILES | IC50 [nM]
CC(=O)c1ccc(N2[C@@H]3CC[C@H]2C[C@@H](NC(=O)c2ccc(C(N)=O)c(NC4CCNC4)c2)C3)nc1 (stereo partly drawn) [N4-[8-(5-acetylpyridin-2-yl)-8-azabicyclo[3.2.1]oct.3-endo-yl]-2-(pyrrolidin-3-ylamino)benzene-1,4-dicarboxamide] | < 500
NC(=O)c1ccc(C(=O)N[C@H]2C[C@H]3CC[C@@H](C2)N3c2ccc(C(=O)CCC3CCCCC3)cn2)cc1NCC1CC1 [N4-{8-[5-(3-cyclohexylpropanoyl)pyridin-2-yl]-8-azabicyclo[3.2.1]oct-3-endo-yl}-2-[(cyclopropylmethyl)amino]benzene-1,4-dicarboxamide] | 1000 to 2000
NC(=O)c1ccc(N2[C@@H]3CC[C@H]2C[C@@H](NC(=O)c2ccc(C(N)=O)c(NC4CCC4)c2)C3)nc1 [N4-{8-[5-(aminocarbonyl)pyridin-2-yl]-8-azabicyclo[3.2.1]oct-3-endo-yl}-2-(cyclobutylamino)benzene-1,4-dicarboxamide] | < 500
NC(=O)c1ccc(N2[C@@H]3CC[C@H]2C[C@@H](NC(=O)c2ccc(C(N)=O)c(OCCN4CCOCC4)c2)C3)nc1 [N4-{8-[5-(aminocarbonyl)pyridin-2-yl]-8-azabicyclo[3.2.1]oct-3-endo-yl}-2-[(2-morpholin-4-ylethyl)oxybenzene-1,4-dicarboxylate] | 1000 to 2000
NC(=O)c1ccc(N2C3CCC2CC(NC(=O)c2ccc(C(N)=O)c(N[C@H]4CC[C@H](O)CC4)c2)C3)nc1 (stereo partly drawn) [N4-{8-[5-(aminocarbonyl)pyridin-2-yl]-8-azabicyclo[3.2.1]oct-3-endo-yl}-2-[(4-hydroxycyclohexyl)amino]benzene-1,4-dicarboxamide] | < 500
NC(=O)c1ccc(N2C3CCC2CC(NC(=O)c2ccc(C(N)=O)c(N[C@H]4CC[C@H](N)CC4)c2)C3)nc1 (stereo partly drawn) [N4-{8-[5-(aminocarbonyl)pyridin-2-yl]-8-azabicyclo[3.2.1]oct-3-endo-yl}-2-[(trans-4-aminocyclohexyl)amino]benzene-1,4-dicarboxamide] | < 500
COc1ccc(Nc2cc(C(=O)N[C@H]3C[C@H]4CC[C@@H](C3)N4c3ccc(C(N)=O)cn3)ccc2C(N)=O)cc1OCCN(C)C [N4-{8-[5-(aminocarbonyl)pyridin-2-yl]-8-azabicyclo[3.2.1]oct-3-endo-yl}-2-{[3-{[2-(dimethylamino)ethyl]oxy}-4-(methyloxy)phenyl]amino}benzene-1,4-dicarboxamide] | < 500
NC(=O)c1ccc(C(=O)N[C@H]2C[C@H]3CC[C@@H](C2)N3c2ccc(C(=O)C3CCC3)cn2)cc1NCC1CC1 [N4-{8-[5-(cyclobutylcarbonyl)pyridin-2-yl]-8-azabicyclo[3.2.1]oct-3-endo-yl}-2-[(cyclopropylmethyl)amino]benzene-1,4-dicarboxamide] | 1000 to 2000
NC(=O)c1ccc(C(=O)N[C@H]2C[C@H]3CC[C@@H](C2)N3c2ccc(C(=O)C3CCCC3)cn2)cc1NCC1CC1 [N4-{8-[5-(cyclopentylcarbonyl)pyridin-2-yl]-8-azabicyclo[3.2.1]oct-3-endo-yl}-2-[(cyclopropylmethyl)amino]benzene-1,4-dicarboxamide] | 2000 to 10000
NC(=O)c1ccc(C(=O)N[C@H]2C[C@H]3CC[C@@H](C2)N3c2ccc(C(=O)C3CC3)cn2)cc1Nc1ccncc1 [N4-{8-[5-(cyclopropylcarbonyl)pyridin-2-yl]-8-azabicyclo[3.2.1]oct-3-endo-yl}-2-(pyridin-4-ylamino)benzene-1,4-dicarboxamide] | < 500
CC(Nc1cc(C(=O)N[C@H]2C[C@H]3CC[C@@H](C2)N3c2ccc(C(=O)C3CC3)cn2)ccc1C(N)=O)C1CC1 (stereo partly drawn) [N4-{8-[5-(cyclopropylcarbonyl)pyridin-2-yl]-8-azabicyclo[3.2.1]oct-3-endo-yl}-2-[(1-cyclopropylethyl)amino]benzene-1,4-dicarboxamide] | < 500
NC(=O)c1ccc(C(=O)N[C@H]2C[C@H]3CC[C@@H](C2)N3c2ccc(C(=O)C3CC3)cn2)cc1NCC1CC1 [N4-{8-[5-(cyclopropylcarbonyl)pyridin-2-yl]-8-azabicyclo[3.2.1]oct-3-endo-yl}-2-[(cyclopropylmethyl)amino]benzene-1,4-dicarboxamide] | < 500
NC(=O)c1ccc(C(=O)NC2CC3CCC(C2)N3c2ccc(C(=O)C3CC3)cn2)cc1N[C@H]1CC[C@H](N2CCCCC2)CC1 (stereo partly drawn) [N4-{8-[5-(cyclopropylcarbonyl)pyridin-2-yl]-8-azabicyclo[3.2.1]oct-3-endo-yl}-2-[(trans-4-piperidin-1-ylcyclohexyl)amino]benzene-1,4-dicarboxamide] | < 500
CC(C)[C@H](C)Nc1cc(C(=O)NC2CC3CCC(C2)N3c2ccc(C(=O)C3CC3)cn2)ccc1C(N)=O (stereo partly drawn) [N4-{8-[5-(cyclopropylcarbonyl)pyridin-2-yl]-8-azabicyclo[3.2.1]oct-3-endo-yl}-2-{[(1S)-1,2-dimethylpropyl]amino}benzene-1,4-dicarboxamide] | < 500
NC(=O)c1ccc(C(=O)N[C@H]2C[C@H]3CC[C@@H](C2)N3c2ccc(C(=O)C3CC3)cn2)cc1NCC(F)(F)C(F)(F)F [N4-{8-[5-(cyclopropylcarbonyl)pyridln-2-yl]-8-azabicyclo[3.2.1]oct-3-endo-yl}-2-[(2,2,3,3,3-pentafluoropropyl)amino]benzene-1,4-dicarboxamide] | < 500

More lines, now with the values ahead:

IC50 [nM] | SMILES
< 500 | COCCNc1cc(C(=O)N[C@H]2C[C@H]3CC[C@@H](C2)N3c2ccc(C(N)=O)cn2)ccc1C(N)=O [N4-{8-[5-(aminocarbonyl)pyridin-2-yl]-8-azabicyclo[3.2.1]oct-3-endo-yl}-2-{[2-(methyloxy)ethyl]amino}benzene-1,4-dicarboxamide]
< 500 | CS(=O)(=O)CCNc1cc(C(=O)N[C@H]2C[C@H]3CC[C@@H](C2)N3c2ccc(C(N)=O)cn2)ccc1C(N)=O [N4-{8-[5-(aminocarbonyl)pyridin-2-yl]-8-azabicyclo[3.2.1]oct-3-endo-yl}-2-{[2-(methylsulfonyl)ethyl]amino}benzene-1,4-dicarboxamide]
< 500 | CCCNc1cc(C(=O)N[C@H]2C[C@H]3CC[C@@H](C2)N3c2ccc(C(=O)C3CC3)cn2)ccc1C(N)=O [N4-{8-[5-(cyclopropylcarbonyl)pyridin-2-yl]-8-azabicyclo[3.2.1]oct-3-endo-yl}-2-(propylamino)benzene-1,4-dicarboxamide]
< 500 | CC(C)OCCNc1cc(C(=O)N[C@H]2C[C@H]3CC[C@@H](C2)N3c2ccc(C(=O)C3CC3)cn2)ccc1C(N)=O [N4-{8-[5-(cyclopropylcarbonyl)pyridin-2-yl]-8-azabicyclo[3.2.1]oct-3-endo-yl}-2-({2-[(1-methylethyl)oxy]ethyl}amino)benzene-1,4-dicarboxamide]
< 500 | CCC(CC)Nc1cc(C(=O)N[C@H]2C[C@H]3CC[C@@H](C2)N3c2ccc(C(=O)C3CC3)cn2)ccc1C(N)=O [N4-{8-[5-(cyclopropylcarbonyl)pyridin-2-yl]-8-azabicyclo[3.2.1]oct-3-endo-yl}-2-[(1-ethylpropyl)amino]benzene-1,4-dicarboxamide]
< 500 | CCC(C)Nc1cc(C(=O)N[C@H]2C[C@H]3CC[C@@H](C2)N3c2ccc(C(=O)C3CC3)cn2)ccc1C(N)=O (stereo partly drawn) [N4-{8-[5-(cyclopropylcarbonyl)pyridin-2-yl]-8-azabicyclo[3.2.1]oct-3-endo-yl}-2-[(1-methylpropyl)amino]benzene-1,4-dicarboxamide]
< 500 | CC[C@@H](C)Nc1cc(C(=O)NC2CC3CCC(C2)N3c2ccc(C(=O)C3CC3)cn2)ccc1C(N)=O (stereo partly drawn) [N4-{8-[5-(cyclopropylcarbonyl)pyridin-2-yl]-8-azabicyclo[3.2.1]oct-3-endo-yl}-2-{[(1R)-1-methylpropyl]amino}benzene-1,4-dicarboxamide]
< 500 | CC[C@H](C)Nc1cc(C(=O)NC2CC3CCC(C2)N3c2ccc(C(=O)C3CC3)cn2)ccc1C(N)=O (stereo partly drawn) [N4-{8-[5-(cyclopropylcarbonyl)pyridin-2-yl]-8-azabicyclo[3.2.1]oct-3-endo-yl}-2-{[(1S)-1-methylpropyl]amino}benzene-1,4-dicarboxamide]
< 500 | COc1ccc(CNC(=O)c2ccc(N3[C@@H]4CC[C@H]3C[C@@H](NC(=O)c3cccc(OC)c3C)C4)nc2)cc1OC [N {[3,4-bis(methyloxy)phenyl]methyl}-6-[3-endo-({[2-methyl-3-(methyloxy)phenyl]carbonyl}amino)-8-azabicyclo[3.2.1]oct-8-yl]pyridine-3-carboxamide]
1000 to 2000 | COc1cccc(C(=O)N[C@H]2C[C@H]3CC[C@@H](C2)N3c2ccc(C(=O)Nc3ccc4c(c3)OCO4)cn2)c1C [N-1,3-benzodioxol-5-yl-6-[3-endo-({[2-methyl-3-(methyloxy)phenyl]carbonyl}amino)-8-azabicyclo[3.2.1]oct-8-yl]pyridine-3-carboxamide]
< 500 | COc1cccc(C(=O)N[C@H]2C[C@H]3CC[C@@H](C2)N3c2ccc(C(=O)NCc3ccc4c(c3)OCO4)cn2)c1C [N-(1,3-benzodioxol-5-ylmethyl)-6-[3-endo-({[2-methyl-3-(methyloxy)phenyl]carbonyl}amino)-8-azabicyclo[3.2.1]oct-8-yl]pyridine-3-carboxamide]
1000 to 2000 | COc1cccc(C(=O)N[C@H]2C[C@H]3CC[C@@H](C2)N3c2ccc(C(=O)NC(C)C)cn2)c1C [N-(1-methylethyl)-6-[3-endo-({[2-methyl-3-(methyloxy)phenyl]carbonyl}amino)-8-azabicyclo[3.2.1]oct-8-yl]pyridine-3-carboxamide]
1000 to 2000 | COc1cccc(C(=O)NC2CC3CCC(C2)N3c2ccc(C(=O)NCC(O)CO)cn2)c1C (stereo not drawn) [N-(2,3-dihydroxypropyl)-6-[3-endo-({[2-methyl-3-(methyloxy)phenyl]carbonyl}amino)-8-azabicyclo[3.2.1]oct-8-yl]pyridine-3-carboxamide]
2000 to 10000 | COc1cccc(C(=O)N[C@H]2C[C@H]3CC[C@@H](C2)N3c2ccc(C(=O)NCCO)cn2)c1C [N-(2-hydroxyethyl)-6-[3-endo-({[2-methyl-3-(methyloxy)phenyl]carbonyl}amino)-8-azabicyclo[3.2.1]oct-8-yl]pyridine-3-carboxamide]
2000 to 10000 | COc1cccc(C(=O)N[C@H]2C[C@H]3CC[C@@H](C2)N3c2ccc(C(=O)NCCC(C)(C)C)cn2)c1C [N-(3,3-dimethylbutyl)-6-[3-endo-({[2-methyl-3-(methyloxy)phenyl]carbonyl}amino)-8-azabicyclo[3.2.1]oct-8-yl]pyridine-3-carboxamide]
